{"source": "patent US7846972B2", "about": "“Multimeric oleamide derivative having connexin-26 inhibiting potency and use thereof in cancer therapy, etc” (The New Industrial Research Organization, priority 2004, dated 2010)", "key": {"rat connexin 26 (Cx26)": {"molecular_target": "T1, rat connexin 26 (Cx26) (Rattus norvegicus, UniProt P21994)", "T1 construct": "expressed in transfected cells; host or cells: HeLa cell subclone HeLa-Cx26 (human uterocervical squamous carcinoma)", "test": "Dye-transfer assay, GJIC through connexin 26 (HeLa-Cx26)", "type": "cell-based", "conditions": "for connexin 26 inhibitory activity: result in words", "procedure": "(§1) Next, with respect to each oleamide derivative synthesized by the method described above, we studied whether each derivative inhibited connexin 26 (in other words, whether each one inhibited the transfer of a substance from one cell to another through a gap junction formed by the connexin 26). The experimental method was the same as that described in International Publication WO 2004/060398. Each gap junction intercellular communication (GJIC) score of each test substance was evaluated by dye-transfer assay.\n(§2) In the same manner as in the method described in the above-mentioned publication, human uterocervical squamaous carcinoma cells (HeLa cells) were used for the experiment. More specifically, HeLa cell subclones (HeLa-Cx26 and HeLa-Cx43) were used, and they stably expressed rat connexin 26 (Cx26) and rat connexin 43 (Cx43), respectively. All cells (including those in the examples described later) were incubated in Dulbecco's modified eagle's medium (DMEM) with 10% fetal calf serum (FCS) added.\n(§3) A day before the assay, the HeLa-Cx26 and HeLa-Cx43 cells each were suspended individually in DMEM containing 10% FCS. The respective cells were divided to be cultured as donor cells and recipient cells. The recipient cells were cultured in a culture dish with a diameter of 3 cm and were adjusted to yield subconfluent monolayers at the time of assay.\nIn the assay, first, both the dyes of calcein (gap junction-permeable) and DiI (gap junction-impermeable) were added to the culture of donor cells at concentrations of 10 μM and 2 μM, respectively, and incubated for one hour. Double-labeled donor cells were trypsinized and washed three times with phosphate-buffered saline. Thereafter each single donor cell was overlaid gently on unlabeled recipient cells. It took one hour for the donor cell to settle over a monolayer. […] Dye transfer from a donor cell to an adjacent recipient cell through a gap junction was observed.\nIn order to evaluate the inhibitory activity of each test substance with respect to the dye-coupling, one hour after the donor cells were planted, oleamide and the multimeric oleamide derivatives described above each were dissolved in ethanol, and 10 μL thereof was then added to each culture dish so that the final concentration was 20 μM. For control, ethanol diluted 1000 times was added to a culture dish.\nIn FIG. 2, since the donor cell indicated with a “*” mark contains both the calcein (green fluorescence) and DiI (red fluorescence), it is shown in yellow in the original drawing. Furthermore, when gap junction-permeable calcein is transferred to a recipient cell through a gap junction by the dye coupling, this cell is shown in green. With such an assay, the GJIC score of each test substance is evaluated as follows.\n(§4) That is, the evaluation was made as “0” where no dye-coupling of a donor cell is found, “1” where the dye-coupling of a donor cell to an adjacent recipient cell is found, “2” and “3” in cases where calcein that has been transferred to the adjacent recipient cell is transferred to the second and third adjacent cells in a direction away from the donor cell, respectively, and so on. Also, as shown with arrows in the drawing, the extent of cell dyeing was evaluated with four levels of 0.25, 0.5, 0.75, and 1.0 as intermediate levels.\n(§5) Such an assay was carried out three times repeatedly. […] Then the average value and standard deviation of the GJIC scores of the respective test substances were calculated. […]"}, "[1]": {"test_system": "BL6 cells (substrains of B16 mouse melanoma cells)", "type": "in vivo", "procedure": "The experiment was carried out by the same method as that described in International Publication WO 2004/060398. That is, after subcutaneously inoculating 1×10^5 BL6 cells (substrains of B16 mouse melanoma cells) to a planter of each 4-week-old C57BL/6 mouse, the mice were classified into two groups.\n(1) MI-22 administration group: a group of mice subjected to intraperitoneal injection of MI-22 (10 mg) dissolved in olive oil (10 mL) so as to be 0.01 mL per 1 g of the weight of a mouse, once a day (about 0.2 mL per administration) on consecutive days\n(2) Nontreatment (Nt) group: a group of mice subjected to no drug administration/treatment by injection.\nThis treatment was carried out on consecutive days from the next day of the BL6 cells inoculation. When tumors that had formed at the inoculation sites grew to have diameters of about 7 mm, the legs with the tumors were removed by amputation at the knee joints. Then the above-mentioned treatment was carried out for another two days after the amputation. Thereafter the mice were fed without being treated. Four weeks after the amputations at the knee joints, the mice were euthanized, and metastasized tubercles that had formed at the pleura surface in the left and right lungs (the number of foci that metastasized to the lungs) were counted visually. An evaluation was made using 15 mice per each group."}, "[2]": {"test": "Solubility in organic solvent (handling property)", "type": "physicochemical"}, "Az521 cells [3]": {"test_system": "Az521 cells", "test": "Cytotoxicity assay (cell growth inhibitory potential), trypan blue cell count", "type": "cell-based, human", "conditions": "Az521 cells in culture, 6-48 hours, FIG. 6", "procedure": "In order to examine the cytotoxicity (cell growth inhibitory potential) of MI-22, approximately 1×10^5 Az521 cells, which were human gastric cancer cells, were plated in each petri dish with a diameter of 3.5 cm and were cultured in the presence or absence (control) of MI-22. Then 6, 12, 24, 36, and 48 hours after the start of culture, the cells in each petri dish were taken off with trypsin-EDTA and then centrifuged. Thereafter the cells were dissolved in 10% FBS-containing DMEM, and then 10 μL of trypan blue was added to 10 μL thereof. After that, the number of cells was counted by the use of a counting chamber. The results are shown in the graphs in FIG. 6. The vertical axis indicates the number of cells, and the horizontal axis indicates the time. The graphs show averages of the results of experiments performed three times."}, "Az521 cells [4]": {"test_system": "Az521 cells", "test": "Cancer growth inhibition (antitumor effect), Az521 cells implanted subcutaneously in nude mice", "type": "in vivo, mouse", "procedure": "Az521 cells, which were human gastric cancer cells, were implanted subcutaneously into the back of each nude mouse. Then the cancer growth inhibitory effect (antitumor effect) provided by MI-22 peritoneal administration was examined. More specifically, 1-2×10^5 Az521 cells were injected subcutaneously into the back of each 4-week-old BALB/c nude mouse (nu/nu). Three days before the subcutaneous implantation, 0.1 mL of a solution containing MI-22 (10 mg) dissolved in olive oil (10 mL) was injected intraperitoneally. After the subcutaneous implantation, MI-22 was administered intraperitoneally in the same manner twice a week. For the control mice group, no drug administration/treatment by injection was carried out.\nThe sizes of tumors formed after the subcutaneous implantation were observed, and then the antitumor effect of MI-22 was evaluated with the weight of the tumors being measured over time. The results are shown in the graph in FIG. 7. The vertical axis indicates the weight (mg) of tumors, and the horizontal axis indicates the number of days after the subcutaneous implantation. The average values of six tumors are shown with respect to three nude mice."}, "rat connexin 43 (Cx43)": {"molecular_target": "T2, rat connexin 43 (Cx43) (Rattus norvegicus, UniProt P08050)", "T2 construct": "expressed in transfected cells; host or cells: HeLa cell subclone HeLa-Cx43 (human uterocervical squamous carcinoma)", "T2 sequence (P08050 2-382 limits assumed)": "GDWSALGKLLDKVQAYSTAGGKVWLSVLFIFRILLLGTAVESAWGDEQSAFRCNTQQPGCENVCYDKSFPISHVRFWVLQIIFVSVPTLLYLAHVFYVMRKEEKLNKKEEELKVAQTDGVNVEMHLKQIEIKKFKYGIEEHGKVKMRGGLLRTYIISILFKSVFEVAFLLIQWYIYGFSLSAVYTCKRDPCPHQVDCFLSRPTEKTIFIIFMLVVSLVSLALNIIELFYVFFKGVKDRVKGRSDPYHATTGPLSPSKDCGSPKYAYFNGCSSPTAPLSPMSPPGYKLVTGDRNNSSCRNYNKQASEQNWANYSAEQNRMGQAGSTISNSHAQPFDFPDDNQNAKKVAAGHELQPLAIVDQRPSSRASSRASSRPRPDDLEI", "test": "Dye-transfer assay, GJIC through connexin 43 (HeLa-Cx43)", "type": "cell-based", "conditions": "for connexin 43 inhibitory activity: HeLa-Cx43, 20 μM, result in words", "procedure": "as §1, §2, §3\nIn the assay, first, both the dyes of calcein (gap junction-permeable) and DiI (gap junction-impermeable) were added to the culture of donor cells at concentrations of 10 μM and 2 μM, respectively, and incubated for one hour. Double-labeled donor cells were trypsinized and washed three times with phosphate-buffered saline. Thereafter each single donor cell was overlaid gently on unlabeled recipient cells. It took one hour for the donor cell to settle over a monolayer. […]\nIn FIG. 2, since the donor cell indicated with a “*” mark contains both the calcein (green fluorescence) and DiI (red fluorescence), it is shown in yellow in the original drawing. […] With such an assay, the GJIC score of each test substance is evaluated as follows.\nas §4, §5"}, "[5]": {"conditions": "HeLa-Cx26, 20 μM, dye-transfer assay"}}, "note": "Entries after “also recorded” stand apart in the source; their conditions may differ."}
{"compound": "CCCCCCCC[C@H]1O[C@H]1CCCCCCCC(=O)NCCCCN(CCCNC(=O)CCCCCCC[C@@H]1O[C@@H]1CCCCCCCC)C(=O)CCCCCCC[C@@H]1O[C@@H]1CCCCCCCC", "note": "(relative stereo) [MI-51, N^1-{3-[8-{(2S*,3R*)-3-Octyl-oxiranyl}-octanoyl]-N-[4-{8[(2S*,3R*)-3-octyl-oxiranyl]-octanoylamino}-butyl]-aminopropyl}-{8-(2S*,3R*)-3-octyl-oxiranyl}octanamide]", "values": [{"measurement": "connexin 26 inhibitory activity as compared to the control by visual observation", "setting": "rat connexin 26 (Cx26); HeLa-Cx26, 20 μM, visual observation", "value": "found to have a connexin 26 inhibitory activity"}]}
{"compound": "CCCCCCCC/C=C\\CCCCCCC(CCCC(CCCCCC/C=C\\CCCCCCCC)C(=O)N(CC)CC)C(=O)N(CC)CC", "note": "(stereo not drawn) [MI-22, N^1,N^1,N^7,N^7-Tetraethyl-2,6-di[(Z)-7-hexadecenyl]-heptanediamide]", "values": [{"measurement": "spontaneous metastasis of cancer vs nontreatment (Nt) group, result in words", "setting": "[1]; C57BL/6 mice, intraperitoneal once a day", "value": "inhibited/suppressed spontaneous metastasis of cancer conspicuously"}, {"measurement": "decrease of the number of metastatic foci in the lungs vs nontreatment (Nt) group", "setting": "[1]; C57BL/6 mice, intraperitoneal once a day, 4 weeks after amputation, FIG. 4", "value": 80, "unit": "%"}, {"measurement": "number of mice with lungs with slight spontaneous metastasis", "setting": "[1]; of 15 mice per group, FIG. 5 (Nt group: eight)", "value": "six"}, {"measurement": "number of mice with lungs with considerable spontaneous metastasis", "setting": "[1]; of 15 mice per group, FIG. 5 (Nt group: five)", "value": "two"}, {"measurement": "number of mice with lungs with no spontaneous metastasis of cancer", "setting": "[1]; of 15 mice per group, FIG. 5 (Nt group: two)", "value": "seven"}, {"measurement": "solubility in an organic solvent", "setting": "[2]", "value": "dissolves well in an organic solvent"}, {"measurement": "cytotoxicity (cell growth inhibitory potential), number of cells vs control", "setting": "Az521 cells [3]", "value": "no significant difference between MI-22 and control; also recorded: not found"}, {"measurement": "growth of tumors (weight of tumors) vs control mice group", "setting": "Az521 cells [4]; BALB/c nude mice, intraperitoneal twice a week, FIG. 7", "value": "suppressed conspicuously"}, {"measurement": "increase in the volume of tumors vs nontreatment mice group (NT)", "setting": "Az521 cells [4]; nude mice, intraperitoneal, FIG. 8", "value": "suppressed conspicuously"}, {"measurement": "connexin 26 inhibitory activity", "setting": "rat connexin 26 (Cx26); [5]", "value": "strong connexin 26 inhibitory activity; also recorded: strong connexin 26 inhibitory activities"}, {"measurement": "GJIC score obtained through connexin 26", "setting": "rat connexin 26 (Cx26); HeLa-Cx26, final concentration 20 μM, dye-transfer assay, FIG. 3", "value": "≤ 2"}, {"measurement": "connexin 43 inhibitory activity", "setting": "rat connexin 43 (Cx43)", "value": "no connexin 43 inhibitory activity; also recorded: hardly inhibited the function of connexin 43; also recorded: no effect of inhibiting connexin 43 was found"}, {"measurement": "GJIC score obtained through connexin 43", "setting": "rat connexin 43 (Cx43); HeLa-Cx43, final concentration 20 μM, FIG. 3", "value": "almost the same as that of a control"}]}
{"compound": "CCCCCCCC/C=C\\CCCCCCC(CCCCCC(CCCCCC/C=C\\CCCCCCCC)C(=O)N(CC)CC)C(=O)N(CC)CC", "note": "(stereo not drawn) [MI-39, N^1,N^1,N^9,N^9-Tetraethyl-2,8-di[(Z)-7-hexadecenyl]nonanediamide]", "values": [{"measurement": "connexin 26 inhibitory activity", "setting": "rat connexin 26 (Cx26); [5]", "value": "strong connexin 26 inhibitory activity; also recorded: strong connexin 26 inhibitory activities"}, {"measurement": "connexin 43 inhibitory activity", "setting": "rat connexin 43 (Cx43)", "value": "no connexin 43 inhibitory activity; also recorded: hardly inhibited the function of connexin 43"}]}
{"compound": "CCCCCCCC/C=C\\CCCCCCCC(=O)NCCCNC(=O)CCCCCCC/C=C\\CCCCCCCC", "note": "[MI-45, N^1-[(Z)-3-Octadec-9-enoylaminopropyl]-(Z)-9octadecenamide]", "values": [{"measurement": "connexin 26 inhibitory activity", "setting": "rat connexin 26 (Cx26); [5]", "value": "strong connexin 26 inhibitory activity; also recorded: strong connexin 26 inhibitory activities"}, {"measurement": "connexin 43 inhibitory activity", "setting": "rat connexin 43 (Cx43)", "value": "no connexin 43 inhibitory activity; also recorded: hardly inhibited the function of connexin 43"}]}
